Experimental data as given in US8362031B2, “Lonidamine analogues and treatment of polycystic kidney disease” (University of Kansas, priority 2004, dated 2013).

Tests used:
[1] = tested on: Salmonella Typhimurium TA 100; test: Ames test for mutagenicity (plate assay, colony count); settings: 48 hours at 37° C.; for Ames test (+)S9 0.1 mg/pl. / Ames test (+)S9 1 mg/pl. / Ames test (+)S9 10 mg/pl.: (+)S9 mix; for Ames test (−)S9 0.1 mg/pl. / Ames test (−)S9 1 mg/pl. / Ames test (−)S9 10 mg/pl.: (−)S9 mix
Male Long Evans rats = test: In vivo antispermatogenic testing in Long Evans rats; settings: for Mortality (25 mg/kg) / Response 25 mg/kg: 25 mg/kg single i.p. injection; for Response 25 mg/kg / Response 200 mg/kg: animals responding out of animals surviving, five days following injection; for Mortality (200 mg/kg) / Response 200 mg/kg: 200 mg/kg single i.p. injection; for Staging 25 mg/kg / Staging 200 mg/kg: seminiferous tubule staging; for Staging 25 mg/kg: 25 mg/kg i.p.; for Staging 200 mg/kg: 200 mg/kg i.p.

## COC(=O)c1nn(Cc2ccc(Cl)cc2Cl)c2ccc(C(F)(F)F)cc12 [JWS-1-254, 1-(2,4-dichlorobenzyl)-5-trifluoromethyl-1H-indazole-3-carboxylic acid methyl ester]
[1]
  Ames test (+)S9 0.1 mg/pl.: Pass
  Ames test (+)S9 1 mg/pl.: Pass
  Ames test (+)S9 10 mg/pl.: Pass
  Ames test (−)S9 0.1 mg/pl.: Pass
  Ames test (−)S9 1 mg/pl.: Pass
  Ames test (−)S9 10 mg/pl.: Pass
Male Long Evans rats
  Mortality (25 mg/kg): 0/5
  Response 25 mg/kg: 0/5
  Mortality (200 mg/kg): 0/5
  Response 200 mg/kg: 0/5

## O=C(O)c1nn(Cc2ccc(Cl)cc2Cl)c2cc(Cl)ccc12 [DD-MC-I, 6-chloro-1-(2,4-dichlorobenzyl)-1H-indazole-3-carboxylic acid]
[1]
  Ames test (+)S9 0.1 mg/pl.: Pass
  Ames test (+)S9 1 mg/pl.: Pass
  Ames test (+)S9 10 mg/pl.: Pass
  Ames test (−)S9 0.1 mg/pl.: Pass
  Ames test (−)S9 1 mg/pl.: Pass
  Ames test (−)S9 10 mg/pl.: Pass
Male Long Evans rats
  Mortality (25 mg/kg): 0/5
  Response 25 mg/kg: 0/5
  Mortality (200 mg/kg): 0/5
  Response 200 mg/kg: 2/5

## COC(=O)c1nn(Cc2ccc(F)cc2F)c2cc(Cl)ccc12 [JWS-1-280, 1-(2,4-difluorobenzyl)-6-chloro-1H-indazole-3-carboxylic acid methyl ester]
[1]
  Ames test (+)S9 0.1 mg/pl.: Pass
  Ames test (+)S9 1 mg/pl.: Pass
  Ames test (+)S9 10 mg/pl.: Pass
  Ames test (−)S9 0.1 mg/pl.: Pass
  Ames test (−)S9 1 mg/pl.: Pass
  Ames test (−)S9 10 mg/pl.: Pass
Male Long Evans rats
  Mortality (25 mg/kg): 0/5
  Response 25 mg/kg: 0/5
  Mortality (200 mg/kg): 0/5
  Response 200 mg/kg: 0/5

## COC(=O)c1nn(Cc2ccc(F)cc2F)c2cc(C(F)(F)F)ccc12 [JWS-1-270, 1-(2,4-difluorobenzyl)-6-trifluoromethyl-1H-indazole-3-carboxylic acid methyl ester]
[1]
  Ames test (+)S9 0.1 mg/pl.: Pass
  Ames test (+)S9 1 mg/pl.: Pass
  Ames test (+)S9 10 mg/pl.: Pass
  Ames test (−)S9 0.1 mg/pl.: Pass
  Ames test (−)S9 1 mg/pl.: Pass
  Ames test (−)S9 10 mg/pl.: Pass
Male Long Evans rats
  Mortality (25 mg/kg): 0/5
  Response 25 mg/kg: 0/5
  Mortality (200 mg/kg): 0/5
  Response 200 mg/kg: 0/5

## NNC(=O)c1nn(Cc2ccc(Cl)cc2Cl)c2cccnc12 [JWS-1-112, 1-(2,4-dichlorobenzyl)-1H-pyrazolo[4,3-b]pyridine-3-carboxylic acid hydrazide]
[1]
  Ames test (+)S9 0.1 mg/pl.: Pass
  Ames test (+)S9 1 mg/pl.: Pass
  Ames test (+)S9 10 mg/pl.: Pass
  Ames test (−)S9 0.1 mg/pl.: Pass
  Ames test (−)S9 1 mg/pl.: Fail
  Ames test (−)S9 10 mg/pl.: Fail

## COC(=O)c1nn(Cc2ccc(Cl)cc2Cl)c2cc(C(F)(F)F)cnc12 [JWS-1-228, 1-(2,4-dichlorobenzyl)-6-trifluoromethyl-1H-pyrazolo[4,3-b]pyridine-3-carboxylic acid methyl ester]
[1]
  Ames test (+)S9 0.1 mg/pl.: Pass
  Ames test (+)S9 1 mg/pl.: Pass
  Ames test (+)S9 10 mg/pl.: Pass
  Ames test (−)S9 0.1 mg/pl.: Pass
  Ames test (−)S9 1 mg/pl.: Pass
  Ames test (−)S9 10 mg/pl.: Pass

## O=C(O)c1nn(Cc2ccc(F)cc2F)c2cc(C(F)(F)F)ccc12 [JWS-1-276, 1-(2,4-difluorobenzyl)-6-trifluoromethyl-1H-indazole-3-carboxylic acid]
[1]
  Ames test (+)S9 0.1 mg/pl.: Pass
  Ames test (+)S9 1 mg/pl.: Pass
  Ames test (+)S9 10 mg/pl.: Pass
  Ames test (−)S9 0.1 mg/pl.: Pass
  Ames test (−)S9 1 mg/pl.: Pass
  Ames test (−)S9 10 mg/pl.: Pass
Male Long Evans rats
  Mortality (25 mg/kg): 0/5
  Response 25 mg/kg: 0/5
  Mortality (200 mg/kg): 0/5
  Response 200 mg/kg: 0/5

## O=C(O)c1nn(Cc2ccc(Cl)cc2Cl)c2ncccc12 [RC-MC-86, 1-(2,4-dichlorobenzyl)-1H-pyrazolo[3,4-b]pyridine-3-carboxylic acid]
[1]
  Ames test (+)S9 0.1 mg/pl.: Pass
  Ames test (+)S9 1 mg/pl.: Pass
  Ames test (+)S9 10 mg/pl.: Pass
  Ames test (−)S9 0.1 mg/pl.: Pass
  Ames test (−)S9 1 mg/pl.: Pass
  Ames test (−)S9 10 mg/pl.: Pass
Male Long Evans rats
  Mortality (25 mg/kg): 0/5
  Response 25 mg/kg: 0/5
  Mortality (200 mg/kg): 0/5
  Response 200 mg/kg: 5/5

## O=C(O)/C=C/c1nn(Cc2ccc(Cl)cc2Cl)c2ncccc12 [RC-MC-65, 3-[1-(2,4-dichlorobenzyl)-1H-pyrazolo[3,4-b]pyridine-3-yl]-acrylic acid]
[1]
  Ames test (+)S9 0.1 mg/pl.: Pass
  Ames test (+)S9 1 mg/pl.: Fail
  Ames test (+)S9 10 mg/pl.: Fail
  Ames test (−)S9 0.1 mg/pl.: Pass
  Ames test (−)S9 1 mg/pl.: Fail
  Ames test (−)S9 10 mg/pl.: Fail

## O=C(O)/C=C/c1nn(Cc2ccc(Cl)cc2Cl)c2ccccc12 [AF2785, reference compound]
Male Long Evans rats
  Mortality (25 mg/kg): 0/5
  Response 25 mg/kg: 1/5
  Mortality (200 mg/kg): 2/6
  Response 200 mg/kg: 3/4
  Staging 25 mg/kg: 5.5
  Staging 200 mg/kg: 3.4

## NNC(=O)c1nn(Cc2ccc(Cl)cc2Cl)c2ccccc12 [AF2364, reference compound]
Male Long Evans rats
  Mortality (25 mg/kg): 0/5
  Response 25 mg/kg: 3/5
  Mortality (200 mg/kg): 0/5
  Response 200 mg/kg: 5/5
  Staging 25 mg/kg: 3.5
  Staging 200 mg/kg: 2.1

## O=C(O)c1nn(Cc2ccc(Cl)cc2Cl)c2cc(C(F)(F)F)cnc12 [JWS-1-230, 1-(2,4-dichlorobenzyl)-6-trifluoromethyl-1H-pyrazolo[4,3-b]pyridine-3-carboxylic acid]
[1]
  Ames test (+)S9 0.1 mg/pl.: Pass
  Ames test (+)S9 1 mg/pl.: Pass
  Ames test (+)S9 10 mg/pl.: Pass
  Ames test (−)S9 0.1 mg/pl.: Pass
  Ames test (−)S9 1 mg/pl.: Pass
  Ames test (−)S9 10 mg/pl.: Pass

## NNC(=O)c1nn(Cc2ccc(F)cc2F)c2ccc(C(F)(F)F)cc12 [JWS-1-302, 1-(2,4-difluorobenzyl)-5-trifluoromethyl-1H-indazole-3-carboxylic acid hydrazide]
[1]
  Ames test (+)S9 0.1 mg/pl.: Pass
  Ames test (+)S9 1 mg/pl.: Pass
  Ames test (+)S9 10 mg/pl.: Fail
  Ames test (−)S9 0.1 mg/pl.: Pass
  Ames test (−)S9 1 mg/pl.: Pass
  Ames test (−)S9 10 mg/pl.: Pass

## O=C(O)/C=C/c1nn(Cc2ccc(F)cc2Cl)c2cc(Cl)ccc12 [JWS-2-36, 3-[1-(2-chloro, 4-fluorobenzyl)-6-chloro-1H-indazol-3-yl]-acrylic acid]
[1]
  Ames test (+)S9 0.1 mg/pl.: Pass
  Ames test (+)S9 1 mg/pl.: Pass
  Ames test (+)S9 10 mg/pl.: Pass
  Ames test (−)S9 0.1 mg/pl.: Pass
  Ames test (−)S9 1 mg/pl.: Fail
  Ames test (−)S9 10 mg/pl.: Pass

## O=C(O)c1nn(Cc2ccc(Cl)cc2Cl)c2cnccc12 [JWS-1-132, 1-(2,4-dichlorobenzyl)-1H-pyrazolo[3,4-c]pyridine-3-carboxylic acid]
[1]
  Ames test (+)S9 0.1 mg/pl.: Pass
  Ames test (+)S9 1 mg/pl.: Pass
  Ames test (+)S9 10 mg/pl.: Pass
  Ames test (−)S9 0.1 mg/pl.: Pass
  Ames test (−)S9 1 mg/pl.: Pass
  Ames test (−)S9 10 mg/pl.: Pass

## COC(=O)c1nn(Cc2ccc(F)cc2F)c2ccc(C(F)(F)F)cc12 [JWS-1-300, 1-(2,4-difluorobenzyl)-5-trifluoromethyl-1H-indazole-3-carboxylic acid methyl ester]
[1]
  Ames test (+)S9 0.1 mg/pl.: Pass
  Ames test (+)S9 1 mg/pl.: Fail
  Ames test (+)S9 10 mg/pl.: Fail
  Ames test (−)S9 0.1 mg/pl.: Pass
  Ames test (−)S9 1 mg/pl.: Fail
  Ames test (−)S9 10 mg/pl.: Fail

## O=C(O)c1nn(Cc2ccc(F)cc2F)c2cc(Cl)ccc12 [JWS-1-284, 1-(2,4-difluorobenzyl)-6-chloro-1H-indazole-3-carboxylic acid]
[1]
  Ames test (+)S9 0.1 mg/pl.: Pass
  Ames test (+)S9 1 mg/pl.: Fail
  Ames test (+)S9 10 mg/pl.: Fail
  Ames test (−)S9 0.1 mg/pl.: Pass
  Ames test (−)S9 1 mg/pl.: Fail
  Ames test (−)S9 10 mg/pl.: Fail
